Laboratory results: ChEMBL document CHEMBL4371069, “Click chemistry for improvement in selectivity of quinazoline-based kinase inhibitors for mutant epidermal growth factor receptors” (Bioorg Med Chem Lett, 2019)

Experiments:
[1] = target: Epidermal growth factor receptor (Homo sapiens, UniProt P00533); assay type: ADME, cell-based, Sf21
Description: Inhibition of human N-terminal GST-tagged EGFR kinase domain (696 to end residues) expressed in baculovirus infected sf21 cells using poly(Glu, Tyr) 4:1 as substrate

[2] = target: Receptor tyrosine-protein kinase erbB-2 (Homo sapiens, UniProt P04626); assay: Inhibition of human C-terminal His6-tagged ERBB2 (676 to end residues) expressed in baculovirus infected sf21 cells using poly(Glu, Tyr) 4:1 as substrate
PC-9 [3] = assay: Antiproliferative activity against human PC9 cells harboring EGFR exon-19 del mutant after 72 hrs by EZ-Cytox assay; assay type: functional, cell-based; conditions: PC-9, 72 h
SK-BR-3 = assay: Antiproliferative activity against HER2-dependant human SKBR3 cells after 72 hrs by EZ-Cytox assay; assay type: ADME, cell-based; conditions: SK-BR-3, 72 h
[4] = Safety index, ratio of compound IC50 to afatinib IC50 for antiproliferative activity against HER2-dependant human SKBR3 cells; assay type: cell-based; conditions: SK-BR-3 cells (HER2-dependent), read-out: Ratio IC50
CYP2D6 = CYP2D6 (Homo sapiens, UniProt P10635); assay: Inhibition of CYP2D6 in human liver microsomes assessed as residual activity at 10 uM using dextromethorphan as substrate preincubated for 5 mins followed by NADPH addition and measured after 15 mins by LC-MS/MS analysis relative to control; assay type: ADME; conditions: probe dextromethorphan, read-out: Activity
CYP2E1 = CYP2E1 (Homo sapiens, UniProt P05181); assay: Inhibition of CYP2E1 in human liver microsomes assessed as residual activity at 10 uM using chlorzoxazone as substrate preincubated for 5 mins followed by NADPH addition and measured after 15 mins by LC-MS/MS analysis relative to control; assay type: ADME; conditions: probe chlorzoxazone, read-out: Activity
hERG (KCNH2) = hERG (KCNH2) (Homo sapiens, UniProt Q12809); assay: Inhibition of human ERG expressed in HEK cell at 10 uM at -70 mV holding potential by patch clamp method relative to control; conditions: HEK cells that express hERG
HepG2 = assay: Cytotoxicity against human HepG2 cells after 24 hrs by LDH release assay; assay type: cell-based; conditions: HepG2, 24 h
[5] = system: Epidermal growth factor receptor (Homo sapiens), P00533 [L858R,T790M]; assay: Potency index, ratio of afatinib IC50 to compound IC50 for inhibition of human N-terminal GST-tagged EGFR T790M/L858R double mutant (696 to end residues) expressed in baculovirus infected sf21 cells
[6] = Selectivity index, ratio of IC50 for human N-terminal GST-tagged EGFR kinase domain (696 to end residues) expressed in baculovirus infected sf21 cells to IC50 for human N-terminal GST-tagged EGFR T790M/L858R double mutant (696 to end residues) expressed in baculovirus infected sf21 cells
[7] = Selectivity index, ratio of IC50 for human C-terminal His6-tagged ERBB2 (676 to end residues) expressed in baculovirus infected sf21 cells to IC50 for human N-terminal GST-tagged EGFR T790M/L858R double mutant (696 to end residues) expressed in baculovirus infected sf21 cells
PC-9 [8] = assay: Potency index, ratio of gefitinib IC50 to compound IC50 for antiproliferative activity against human PC9 cells harboring EGFR exon-19 del mutant; assay type: functional

CYP2E1, sequence (P05181 whole entry): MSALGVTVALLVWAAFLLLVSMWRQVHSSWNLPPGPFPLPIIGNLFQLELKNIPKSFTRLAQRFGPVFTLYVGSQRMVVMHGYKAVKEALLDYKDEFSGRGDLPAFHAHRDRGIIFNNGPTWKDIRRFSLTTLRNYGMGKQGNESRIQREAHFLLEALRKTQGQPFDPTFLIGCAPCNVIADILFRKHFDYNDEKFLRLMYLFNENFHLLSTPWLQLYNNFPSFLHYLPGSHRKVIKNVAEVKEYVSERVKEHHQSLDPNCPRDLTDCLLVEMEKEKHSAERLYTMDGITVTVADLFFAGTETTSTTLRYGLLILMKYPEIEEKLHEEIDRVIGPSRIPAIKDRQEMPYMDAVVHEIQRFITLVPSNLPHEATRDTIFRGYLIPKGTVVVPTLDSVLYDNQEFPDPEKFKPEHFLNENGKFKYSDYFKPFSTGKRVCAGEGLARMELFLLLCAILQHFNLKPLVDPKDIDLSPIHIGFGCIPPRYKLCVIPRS
Receptor tyrosine-protein kinase erbB-2, sequence (P04626 whole entry): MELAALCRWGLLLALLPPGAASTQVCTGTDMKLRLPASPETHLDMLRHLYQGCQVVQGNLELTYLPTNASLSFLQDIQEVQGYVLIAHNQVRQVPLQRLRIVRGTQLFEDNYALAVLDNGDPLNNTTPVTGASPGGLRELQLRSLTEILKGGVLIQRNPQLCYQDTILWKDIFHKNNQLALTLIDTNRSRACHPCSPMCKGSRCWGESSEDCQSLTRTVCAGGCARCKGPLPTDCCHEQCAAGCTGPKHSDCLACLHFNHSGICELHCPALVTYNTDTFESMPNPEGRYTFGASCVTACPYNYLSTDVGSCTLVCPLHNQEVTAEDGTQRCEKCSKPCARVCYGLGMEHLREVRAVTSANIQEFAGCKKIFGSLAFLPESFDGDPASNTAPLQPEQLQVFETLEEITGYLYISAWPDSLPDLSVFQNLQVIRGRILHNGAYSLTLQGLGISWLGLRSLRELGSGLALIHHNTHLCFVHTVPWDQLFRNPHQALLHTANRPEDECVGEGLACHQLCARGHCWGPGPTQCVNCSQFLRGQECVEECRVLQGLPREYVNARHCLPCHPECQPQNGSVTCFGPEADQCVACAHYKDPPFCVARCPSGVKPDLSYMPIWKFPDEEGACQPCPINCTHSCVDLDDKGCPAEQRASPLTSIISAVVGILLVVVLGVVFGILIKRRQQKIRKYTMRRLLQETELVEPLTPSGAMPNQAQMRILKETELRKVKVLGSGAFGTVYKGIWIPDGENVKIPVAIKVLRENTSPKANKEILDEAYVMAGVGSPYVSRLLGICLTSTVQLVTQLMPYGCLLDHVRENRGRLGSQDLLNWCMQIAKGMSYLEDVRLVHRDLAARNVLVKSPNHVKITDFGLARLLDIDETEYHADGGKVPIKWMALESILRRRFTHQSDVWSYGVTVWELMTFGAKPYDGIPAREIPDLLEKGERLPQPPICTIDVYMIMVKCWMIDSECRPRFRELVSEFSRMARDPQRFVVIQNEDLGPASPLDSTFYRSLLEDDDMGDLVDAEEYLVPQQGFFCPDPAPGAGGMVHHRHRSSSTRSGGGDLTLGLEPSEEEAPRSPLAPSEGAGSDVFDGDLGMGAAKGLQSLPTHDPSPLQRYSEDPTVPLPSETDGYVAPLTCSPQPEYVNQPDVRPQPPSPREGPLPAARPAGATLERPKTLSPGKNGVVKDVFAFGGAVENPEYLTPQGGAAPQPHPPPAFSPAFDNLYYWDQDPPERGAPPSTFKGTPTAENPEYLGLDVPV
CYP2D6, sequence (P10635 whole entry): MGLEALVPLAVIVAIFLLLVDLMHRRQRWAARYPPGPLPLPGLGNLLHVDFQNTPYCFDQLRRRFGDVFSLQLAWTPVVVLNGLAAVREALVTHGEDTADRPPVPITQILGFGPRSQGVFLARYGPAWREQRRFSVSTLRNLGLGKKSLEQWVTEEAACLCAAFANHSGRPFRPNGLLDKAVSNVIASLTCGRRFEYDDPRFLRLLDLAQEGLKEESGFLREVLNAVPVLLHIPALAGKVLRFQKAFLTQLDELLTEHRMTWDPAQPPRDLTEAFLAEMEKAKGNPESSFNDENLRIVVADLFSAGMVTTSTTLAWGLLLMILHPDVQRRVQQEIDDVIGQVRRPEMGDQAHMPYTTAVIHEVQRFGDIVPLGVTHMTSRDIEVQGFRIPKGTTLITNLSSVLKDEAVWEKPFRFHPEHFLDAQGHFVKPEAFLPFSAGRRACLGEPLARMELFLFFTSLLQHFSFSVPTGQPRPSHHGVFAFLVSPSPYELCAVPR
hERG (KCNH2), sequence (Q12809 whole entry): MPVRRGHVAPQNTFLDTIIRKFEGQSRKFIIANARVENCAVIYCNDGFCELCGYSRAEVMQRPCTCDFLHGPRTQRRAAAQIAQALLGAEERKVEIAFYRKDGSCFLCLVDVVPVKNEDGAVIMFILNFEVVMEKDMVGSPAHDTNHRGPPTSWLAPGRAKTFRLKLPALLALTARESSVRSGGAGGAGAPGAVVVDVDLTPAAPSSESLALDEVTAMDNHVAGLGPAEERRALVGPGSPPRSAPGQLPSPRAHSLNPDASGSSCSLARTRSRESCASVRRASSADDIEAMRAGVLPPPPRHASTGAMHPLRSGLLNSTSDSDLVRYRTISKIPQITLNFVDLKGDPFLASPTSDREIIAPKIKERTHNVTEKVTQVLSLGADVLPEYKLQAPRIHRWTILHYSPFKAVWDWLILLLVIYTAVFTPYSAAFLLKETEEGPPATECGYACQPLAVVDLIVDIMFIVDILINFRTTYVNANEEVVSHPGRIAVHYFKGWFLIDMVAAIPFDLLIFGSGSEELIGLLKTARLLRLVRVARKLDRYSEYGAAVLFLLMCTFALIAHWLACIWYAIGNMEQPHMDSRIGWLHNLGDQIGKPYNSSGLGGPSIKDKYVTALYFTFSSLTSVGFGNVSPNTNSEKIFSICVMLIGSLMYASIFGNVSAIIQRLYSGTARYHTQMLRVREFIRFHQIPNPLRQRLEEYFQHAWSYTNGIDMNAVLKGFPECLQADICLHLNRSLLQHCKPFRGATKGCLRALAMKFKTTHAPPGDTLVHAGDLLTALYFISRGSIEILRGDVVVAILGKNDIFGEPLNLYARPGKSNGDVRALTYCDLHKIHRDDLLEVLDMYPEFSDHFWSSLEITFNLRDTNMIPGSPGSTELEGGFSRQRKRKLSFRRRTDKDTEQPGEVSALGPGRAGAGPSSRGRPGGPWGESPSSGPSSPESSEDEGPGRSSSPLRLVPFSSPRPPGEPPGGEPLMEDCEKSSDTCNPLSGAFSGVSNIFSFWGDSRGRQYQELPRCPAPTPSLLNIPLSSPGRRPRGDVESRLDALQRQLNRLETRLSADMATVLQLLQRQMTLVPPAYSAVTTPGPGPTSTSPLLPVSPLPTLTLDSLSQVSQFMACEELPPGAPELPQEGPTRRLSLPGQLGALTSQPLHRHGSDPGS

| Compound | IC50 [1] | IC50 [2] | IC50 (PC-9 [3]) | IC50 (SK-BR-3) | selectivity ratio [4] | activity at 0.25 h, 10 µM (CYP2D6) | activity at 0.25 h, 10 µM (CYP2E1) | inhibition at 10 µM (hERG (KCNH2)) | IC50 (HepG2) | Ratio IC50 [5] | Ratio IC50 [6] | Ratio IC50 [7] | Ratio IC50 (PC-9 [8]) |
| --- | --- | --- | --- | --- | --- | --- | --- | --- | --- | --- | --- | --- | --- |
| C=CC(=O)Nc1cc2c(Nc3ccc(F)c(Cl)c3)ncnc2cc1OCc1cn(Cc2ccc(Cl)cc2)nn1 | 62 nM | 225 nM | 0.9 nM | 266 nM | > 95 | 24.4% | 63.4% | 33.6% | 60000 nM |  |  |  |  |
| C=CC(=O)Nc1cc2c(Nc3ccc(F)c(Cl)c3)ncnc2cc1OCc1cn(Cc2ccc(F)cc2)nn1 | 45 nM | 212 nM | 1 nM | 143 nM | > 95 | 12.2% | 60.9% | 46.2% | 27000 nM |  |  |  |  |
| C=CC(=O)Nc1cc2c(Nc3ccc(F)c(Cl)c3)ncnc2cc1OCc1cn(Cc2cccc(F)c2)nn1 | 68 nM | 209 nM | 0.9 nM | 115 nM | > 95 | 14.9% | 59% | 20.7% | 29000 nM | 3.5 | 17 | 52 | 6.7 |
